Some test systems named below: M19-MEL melanoma; T-47D breast; P388 leukemia; P388/ADR leukemia; XF 498 CNS; SNB-78 CNS; DLD-1 colon; SN12K1 renal; MDA-N; HOP-18 NSCLC; RXF-631 renal; LXFL 529 NSCLC.
Common to all, as to experiment: NCI tumour cell line growth inhibition, 48 h

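Protocol summary: plate cells (96-well), add compound at 5 concentrations, incubate 48 h, interpolate endpoints linearly. GI50 = concentration required for 50% inhibition of growth. Definition used: TGI = concentration required for complete inhibition of growth.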 Some results are limits rather than exact numbers.

Turning to `[N-]=[N+]=CC(=O)CCC(N)C(=O)O` (stereo not drawn), the TGI in the assay with M19-MEL melanoma was above 138 µM; in the assay with T-47D breast it was above 250 µM; in the assay with P388 leukemia, 21.9 µM; in the assay with P388/ADR leukemia, 30.4 µM; in the assay with XF 498 CNS it was 230 µM; in the assay with SNB-78 CNS, above 74.4 µM. The TGI was above 170 µM with DLD-1 colon, 141 µM with SN12K1 renal, above 250 µM in the assay with MDA-N and above 250 µM in the assay on HOP-18 NSCLC. Also, the GI50 was 16.2 µM in the assay with T-47D breast and 2.26 µM in the assay with MDA-N.

Regarding `C[C@@H]1C[C@@H]([C@H](O)CC2CC(=O)NC(=O)C2)C(=O)[C@@H](C)C1`, the TGI in the assay with RXF-631 renal was 0.608 µM; in the assay on M19-MEL melanoma it was 3.48 µM; with T-47D breast, 5.07 µM; in the assay with XF 498 CNS, 0.504 µM; in the assay with SNB-78 CNS it was 11.1 µM; in the assay with DLD-1 colon, 1.98 µM. In addition, the TGI in the assay on LXFL 529 NSCLC was found to be 0.623 µM. Also, in the assay with T-47D breast, the GI50 is 0.231 µM.

In the case of `O=C(CC1=Nc2nnc(CCCCCCCc3nnc4n3C(=O)C(CC(=O)c3ccc5ccccc5c3)=N4)n2C1=O)c1ccc2ccccc2c1`, the TGI with RXF-631 renal, in the assay on M19-MEL melanoma, in the assay on XF 498 CNS, in the assay with SNB-78 CNS, in the assay with DLD-1 colon and in the assay with LXFL 529 NSCLC was above 100 µM in each case. Moreover, in the assay on HOP-18 NSCLC, the TGI is above 100 µM.

Consider `CC(=O)Nc1ccc(C2CC(c3ccc([N+](=O)[O-])cc3)=Nc3ccccc3S2)cc1` (stereo not drawn), for which the TGI in the assay with RXF-631 renal is 70 µM; in the assay with M19-MEL melanoma, 45.6 µM; in the assay on XF 498 CNS it was 27 µM; with SNB-78 CNS it was above 100 µM; in the assay on DLD-1 colon it was 32.4 µM; in the assay on LXFL 529 NSCLC it was 41.7 µM. The compound further registered a TGI in the assay on HOP-18 NSCLC of 78.2 µM.

Consider `O=c1c(Cc2ccccc2)c(O)cc2n1CCC2`, for which the TGI with RXF-631 renal, in the assay on M19-MEL melanoma, with XF 498 CNS, in the assay on SNB-78 CNS, in the assay on DLD-1 colon and with LXFL 529 NSCLC was above 100 µM in each case. The TGI with HOP-18 NSCLC is above 100 µM.

Turning to `O=C1NC(O)n2c(=O)[nH]c(=O)n21` (stereo not drawn), the TGI with RXF-631 renal, with M19-MEL melanoma, in the assay with XF 498 CNS, in the assay with SNB-78 CNS, in the assay with DLD-1 colon and in the assay on LXFL 529 NSCLC was above 100 µM each time. In the assay with HOP-18 NSCLC, the TGI is above 100 µM.

With `c1ccc2c(c1)[nH]c1c2nc2ccccn21`, the TGI in the assay on RXF-631 renal, in the assay with M19-MEL melanoma, with XF 498 CNS, in the assay on SNB-78 CNS, with DLD-1 colon and in the assay on LXFL 529 NSCLC was above 100 µM throughout. In addition, the TGI in the assay on HOP-18 NSCLC is above 100 µM.

For the compound `COC(=O)C1C=CCC2CCCCC21N1CCCC1` (stereo not drawn), the TGI with RXF-631 renal, in the assay with M19-MEL melanoma, with SNB-78 CNS, in the assay on DLD-1 colon, with LXFL 529 NSCLC and in the assay with HOP-18 NSCLC was above 100 µM in each case.

On to `Cc1cc(Cl)ccc1NC(=O)CCCC(=O)C1C/C(=N/O)CC/C1=N\O` (stereo not drawn), for which the TGI with RXF-631 renal, in the assay on M19-MEL melanoma, in the assay on XF 498 CNS, in the assay with SNB-78 CNS, in the assay on DLD-1 colon and in the assay with LXFL 529 NSCLC was above 100 µM in each case. In the assay with HOP-18 NSCLC, this compound gave a TGI above 100 µM.

Take `N/N=C(/Cc1ccccc1)NNO`: the TGI in the assay on RXF-631 renal, in the assay with M19-MEL melanoma, in the assay on DLD-1 colon, in the assay with LXFL 529 NSCLC and in the assay on HOP-18 NSCLC was above 100 µM in each case.

Regarding `CC(=O)N1[C@H](C(=O)O)CS[C@H]1c1ccc(F)cc1`, the TGI with RXF-631 renal, in the assay with M19-MEL melanoma, with SNB-78 CNS, in the assay with LXFL 529 NSCLC and in the assay on HOP-18 NSCLC was above 100 µM each time.

The record behind these values is PubChem BioAssay (NCI).
